The text below walks through data of patent US8168651B2, “Protein kinase modulators” (Cylene Pharmaceuticals, Inc., priority 2008, dated 2012).

Assay [1] has as its system MiaPaca human pancreatic carcinoma cells. Kind of assay: Cell-proliferation assay using Alamar Blue dye. Conditions: MIA PaCa-2, Table 45. The class given is cell-based. The protocol: A representative cell-proliferation assay protocol using Alamar Blue dye (stored at 4° C., use 20 ul per well) is described hereafter.
• a. Split and trypsinize cells. • b. Count cells using hemocytometer. • c. Plate 4,000-5,000 cells per well in 100 μl of medium and seed into a 96-well plate according to the following plate layout. Add cell culture medium only to wells B10 to B12. Wells B1 to B9 have cells but no compound added.
• d. Add 100 μl of 2× drug dilution to each well in a concentration shown in the plate layout above. At the same time, add 100 μl of media into the control wells (wells B10 to B12). Total volume is 200 μl/well. • e. Incubate four (4) days at 37° C., 5% CO2 in a humidified incubator. • f. Add 20 μl Alamar Blue reagent to each well. • g. Incubate for four (4) hours at 37° C., 5% CO2 in a humidified incubator. • h. Record fluorescence at an excitation wavelength of 544 nm and emission wavelength of 590 nm using a microplate reader.
In the assays, cells are cultured with a test compound for approximately four days, the dye then is added to the cells and fluorescence of […] dye is detected after approximately four hours. Different types of cells can be utilized in the assays (e.g., HCT-116 human colorectal carcinoma cells, PC-3 human prostatic cancer cells and MiaPaca human pancreatic carcinoma cells). Anti-proliferative effects of representative compounds are provided hereafter

The target of another assay is recombinant human PIM1 (Homo sapiens (Human), UniProt P11309). Briefly: PIM-1 kinase activity in cell-free in vitro assay. The class given is biochemical. Conditions: Table 45.
recombinant human PIM1, sequence (P11309 whole entry): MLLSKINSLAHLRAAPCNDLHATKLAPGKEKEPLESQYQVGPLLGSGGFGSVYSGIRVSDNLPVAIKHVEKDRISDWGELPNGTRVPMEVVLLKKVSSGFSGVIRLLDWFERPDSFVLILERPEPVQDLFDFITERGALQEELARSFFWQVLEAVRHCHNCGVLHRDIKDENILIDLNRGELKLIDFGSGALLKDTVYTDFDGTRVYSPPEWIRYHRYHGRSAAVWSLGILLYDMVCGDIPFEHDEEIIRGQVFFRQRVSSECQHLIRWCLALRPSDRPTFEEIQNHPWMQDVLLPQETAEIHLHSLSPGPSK
For another assay, the system named is K-562. Kind of assay: Cell proliferation modulatory activity, K-562. The class given is cell-based. Conditions: Homo sapiens, K562; Table 45; read-out: K-562 IC50.
The subject of the next assay is MV-4-11. Briefly: Cell proliferation modulatory activity, MV-4-11. The class given is cell-based. Conditions: Homo sapiens, MV4-11; Table 45; read-out: MV-4-11 IC50.
Another assay deals with PIM2 (Homo sapiens (Human), UniProt Q9P1W9). Briefly: PIM2 IC50. The class given is biochemical. Conditions: Table 45.
PIM2, sequence (Q9P1W9 whole entry): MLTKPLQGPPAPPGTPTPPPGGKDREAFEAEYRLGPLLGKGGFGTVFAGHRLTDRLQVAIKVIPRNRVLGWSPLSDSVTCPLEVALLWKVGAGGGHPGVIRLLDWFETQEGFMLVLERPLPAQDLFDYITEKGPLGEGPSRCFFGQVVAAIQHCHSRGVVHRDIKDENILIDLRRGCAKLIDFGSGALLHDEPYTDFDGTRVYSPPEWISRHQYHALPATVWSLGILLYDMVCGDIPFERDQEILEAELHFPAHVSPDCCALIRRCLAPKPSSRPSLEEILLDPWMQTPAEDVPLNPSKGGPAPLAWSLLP
Another assay deals with phosphoBAD ser 112. Briefly: phosphoBAD ser 112 IC50. Type of assay: cell-based. Conditions: read-out: phosphoBAD ser 112 IC50; Table 45.
The subject of another assay is MDAMB231. Kind of assay: MDAMB231 IC50. Type of assay: cell-based. Conditions: Homo sapiens, MDA-MB-231; Table 45.

In the case of `Cc1cc(F)ccc1Nc1nc2c(-c3nnc[nH]3)cccc2c2cnccc12`, the IC50 in assay [1] is < 5000 nM; on recombinant human PIM1, < 100 nM; in the assay on K-562 it was < 500 nM; with MV-4-11, < 100 nM; against PIM2, < 100 nM; in the assay on phosphoBAD ser 112, < 100 nM. The IC50 in the assay with MDAMB231 was > 10000 nM.
Regarding `Fc1ccc(Cl)cc1Nc1nc2c(-c3nnc[nH]3)cccc2c2cnccc12`, the IC50 in assay [1] was < 1000 nM; on recombinant human PIM1 it was < 100 nM; in the assay with K-562 it was < 5000 nM; in the assay on MV-4-11 it was < 100 nM; against PIM2, < 100 nM; in the assay on phosphoBAD ser 112, < 1000 nM. In the assay on MDAMB231, the IC50 is < 1000 nM.
For `Fc1ccc(Nc2nc3c(-c4nc[nH]n4)cccc3c3cnccc23)c(F)c1`, the IC50 in assay [1] is < 5000 nM; on recombinant human PIM1 it was < 100 nM; with K-562 it was < 5000 nM; in the assay on MV-4-11, < 100 nM; against PIM2, < 100 nM; in the assay on phosphoBAD ser 112, < 100 nM. Also, the IC50 in the assay with MDAMB231 is < 5000 nM.
As to `Cc1ccccc1Nc1nc2c(-c3nnc[nH]3)cccc2c2cnccc12`, the results for the IC50 (in assay [1]; in the assay on K-562; with MDAMB231) were < 1000 nM, < 1000 nM and > 10000 nM, respectively.
With `Fc1cccc(F)c1Nc1nc2c(-c3nnc[nH]3)cccc2c2cnccc12`, the IC50 in assay [1] was < 1000 nM; at recombinant human PIM1 it was < 100 nM; in the assay with K-562, < 500 nM; in the assay with MV-4-11, < 100 nM; against PIM2 it was < 100 nM; in the assay on phosphoBAD ser 112 it was < 100 nM. Besides, the IC50 in the assay on MDAMB231 was < 5000 nM.
On to `c1ccc(Nc2nc3c(-c4nnc[nH]4)cccc3c3cnccc23)cc1`, for which the IC50 in assay [1] is < 1000 nM; at recombinant human PIM1, < 100 nM; in the assay with K-562, < 5000 nM; in the assay on MV-4-11, < 100 nM; at PIM2, < 1000 nM; in the assay with phosphoBAD ser 112, < 100 nM. Besides, the IC50 in the assay on MDAMB231 is > 10000 nM.
For the compound `CCOc1ccc(Nc2nc3c(-c4nnc[nH]4)cccc3c3cnccc23)cc1`, the IC50 in assay [1] is < 1000 nM; on recombinant human PIM1 it was < 100 nM; with K-562 it was < 5000 nM; in the assay on MV-4-11, < 100 nM; on PIM2 it was < 500 nM; in the assay with phosphoBAD ser 112 it was < 100 nM. In the assay with MDAMB231, the half-maximal inhibitory concentration (IC50) was > 10000 nM.
For the compound `Fc1ccc(Nc2nc3c(-c4nnc[nH]4)cccc3c3cnccc23)cc1`, the IC50 was < 5000 nM in assay [1]; < 100 nM at recombinant human PIM1; > 10000 nM with K-562; < 500 nM in the assay with MV-4-11; < 500 nM against PIM2; < 500 nM in the assay with phosphoBAD ser 112. Also, the IC50 in the assay with MDAMB231 was < 5000 nM.
Turning to `Cc1ccc(F)cc1Nc1nc2c(-c3nnc[nH]3)cccc2c2cnccc12`, the IC50 is > 10000 nM in the assay with K-562, < 100 nM at PIM2 and > 10000 nM with MDAMB231.
For the compound `c1cc(-c2nc[nH]n2)c2nc(NC3CC3)c3ccncc3c2c1`, the IC50 in assay [1] was < 1000 nM; at recombinant human PIM1, < 100 nM; with K-562, < 100 nM; in the assay with MV-4-11 it was < 100 nM; against PIM2, < 100 nM; with phosphoBAD ser 112 it was < 100 nM. Moreover, in the assay with MDAMB231, the IC50 is < 1000 nM.
As to `C#Cc1cccc(Nc2nc3c(-c4nnc[nH]4)cccc3c3cnccc23)c1`, the IC50 is < 500 nM in assay [1]; < 100 nM on recombinant human PIM1; < 5000 nM with K-562; < 100 nM in the assay with MV-4-11; < 100 nM at PIM2; < 100 nM in the assay on phosphoBAD ser 112. Further, the IC50 with MDAMB231 is < 500 nM.
Turning to `Clc1cccc(Nc2nc3c(-c4nnc[nH]4)cccc3c3cnccc23)c1`, the IC50 is < 1000 nM in assay [1]; < 100 nM at recombinant human PIM1; < 1000 nM with K-562; < 500 nM in the assay on MV-4-11; < 100 nM against PIM2; < 1000 nM in the assay on phosphoBAD ser 112. In addition, the IC50 in the assay with MDAMB231 was < 5000 nM.
As for `Clc1ccc(Nc2nc3c(-c4nc[nH]n4)cccc3c3cnccc23)cc1`, the IC50 in assay [1] was > 10000 nM; on recombinant human PIM1, < 100 nM; in the assay with K-562, < 500 nM; in the assay with MV-4-11, < 500 nM; on PIM2 it was < 500 nM; in the assay with phosphoBAD ser 112 it was < 5000 nM. In the assay with MDAMB231, the IC50 is > 10000 nM.
As for `COc1cccc(Nc2nc3c(-c4nnc[nH]4)cccc3c3cnccc23)c1`, the IC50 was < 1000 nM in assay [1]; < 100 nM on recombinant human PIM1; < 5000 nM with K-562; < 500 nM with MV-4-11; < 1000 nM against PIM2; < 100 nM in the assay on phosphoBAD ser 112. For the same compound, in the assay with MDAMB231, the IC50 is < 1000 nM.
`COc1ccccc1Nc1nc2c(-c3nnc[nH]3)cccc2c2cnccc12`: the IC50 on recombinant human PIM1 is < 100 nM; in the assay on K-562 it was < 5000 nM; with MV-4-11, < 100 nM; against PIM2, < 1000 nM; in the assay with phosphoBAD ser 112 it was < 100 nM; in the assay on MDAMB231, < 5000 nM.
Turning to `COc1cccc(CNc2nc3c(-c4nc[nH]n4)cccc3c3cnccc23)c1`, the IC50 is > 10000 nM in assay [1]; < 100 nM at recombinant human PIM1; < 500 nM with K-562; < 500 nM with MV-4-11; < 500 nM against PIM2; < 5000 nM with phosphoBAD ser 112. The IC50 with MDAMB231 is > 10000 nM.
As to `Cc1cc(Nc2nc3c(-c4nnc[nH]4)cccc3c3cnccc23)ccc1F`, the IC50 in assay [1] is < 500 nM; on recombinant human PIM1, < 100 nM; in the assay on K-562, > 10000 nM; in the assay with MV-4-11, < 100 nM; on PIM2, < 500 nM; in the assay with phosphoBAD ser 112, < 5000 nM. Besides, the IC50 in the assay with MDAMB231 was > 10000 nM.
Take `Fc1ccc(Nc2nc3c(-c4nc[nH]n4)cccc3c3cnccc23)cc1F`: the 50% inhibitory concentration (IC50) was < 5000 nM in assay [1]; < 100 nM at recombinant human PIM1; > 10000 nM in the assay on K-562; < 100 nM in the assay on MV-4-11; < 500 nM against PIM2; < 5000 nM in the assay on phosphoBAD ser 112. Besides, in the assay with MDAMB231, the IC50 was < 1000 nM.
In the case of `Fc1ccc(Nc2nc3c(-c4nnc[nH]4)cccc3c3cnccc23)cc1Cl`, the IC50 was < 5000 nM in assay [1]; < 100 nM on recombinant human PIM1; < 5000 nM in the assay on K-562; < 100 nM in the assay on MV-4-11; < 500 nM on PIM2; < 1000 nM in the assay with phosphoBAD ser 112. Moreover, in the assay with MDAMB231, the IC50 was < 5000 nM.
Take `Clc1cccc(Nc2nc3c(-c4nc[nH]n4)cccc3c3ccncc23)c1`: the IC50 in assay [1] is > 10000 nM; at recombinant human PIM1, < 100 nM; with K-562 it was > 10000 nM; in the assay with MV-4-11 it was > 10000 nM; against PIM2, < 500 nM; in the assay on MDAMB231, > 10000 nM.
For the compound `CN(c1ccccc1Cl)c1nc2c(-c3nnc[nH]3)cccc2c2cnccc12`, the IC50 at recombinant human PIM1 was < 100 nM; in the assay on K-562 it was < 5000 nM; in the assay with MV-4-11, < 100 nM; against PIM2, < 1000 nM; with phosphoBAD ser 112, < 5000 nM; with MDAMB231, > 10000 nM.
In the case of `CN(c1ccc(Cl)cc1)c1nc2c(-c3nc[nH]n3)cccc2c2cnccc12`, the IC50 was < 5000 nM in assay [1]; < 100 nM on recombinant human PIM1; < 500 nM in the assay with K-562; < 1000 nM in the assay with MV-4-11; < 5000 nM against PIM2; > 10000 nM in the assay on MDAMB231.
Regarding `FC(F)(F)c1cccc(Nc2nc3c(-c4nnc[nH]4)cccc3c3cnccc23)c1`, the IC50 in assay [1] was < 5000 nM; on recombinant human PIM1, < 500 nM; with K-562, < 5000 nM; in the assay on MV-4-11 it was < 500 nM; against PIM2, > 1100 nM; with phosphoBAD ser 112, < 1000 nM.
With `NC(=O)c1cccc2c1nc(Nc1cccc(F)c1)c1ccncc12`, the IC50 in assay [1] is < 1000 nM; at recombinant human PIM1 it was < 500 nM; in the assay on K-562 it was < 1000 nM; in the assay on MV-4-11 it was < 120 nM; with phosphoBAD ser 112, < 100 nM; in the assay on MDAMB231 it was < 1000 nM.
In the case of `NC(=O)c1cccc2c1nc(Nc1cccc(Cl)c1)c1cnccc12`, the IC50 was > 10000 nM in assay [1]; < 500 nM at recombinant human PIM1; > 10000 nM with K-562; > 10000 nM in the assay on MV-4-11; > 10000 nM with MDAMB231.
Take `COCCOc1cccc(Nc2nc3c(-c4nnc[nH]4)cccc3c3cnccc23)c1`: the IC50 in assay [1] is > 10000 nM; at recombinant human PIM1, < 500 nM; in the assay with K-562 it was > 10000 nM; with MV-4-11, < 100 nM; with phosphoBAD ser 112, < 100 nM; in the assay with MDAMB231 it was > 10000 nM.
With `Clc1ccccc1Nc1nc2c(-c3nnc[nH]3)cccc2c2cnccc12` [drawing 2209], the IC50 in assay [1] was < 500 nM; in the assay with K-562, < 5000 nM; against PIM2, < 100 nM; with MDAMB231, < 500 nM.
Turning to `NC(=O)c1cccc2c1nc(Nc1cccc(Cl)c1)c1ccncc12` [drawing 2246], the IC50 was < 1000 nM in assay [1]; < 100 nM at recombinant human PIM1; < 500 nM in the assay on K-562; < 100 nM in the assay on MV-4-11; < 5000 nM with phosphoBAD ser 112; < 10000 nM in the assay with MDAMB231.
